These results are taken from paper PMC10223898 (Pharmaceuticals, 2023).

Where two headings read alike, the source gives them in different places.

The target in assay [1] is T1, LsrK (Salmonella typhimurium, UniProt Q8ZKQ6).
T1 construct: hexa-histidine (C); made in house; host or cells: E. coli BL21(DE3), pET-28a
Kind of assay: LsrK inhibition assay (Kinase-Glo luminescence). The conditions noted are these: dose-response curves at 50, 100 and 150 μM ATP. Format: biochemical, S. typhimurium. (Kinase-Glo reads ATP consumption through a luciferase reaction.)

Assay [2] addresses T1, LsrK. Kind of assay: LsrK inhibition assay (Kinase-Glo luminescence). Format: biochemical, S. typhimurium. Conditions: for inhibition at 200 µM: compound at 200 μM. As to the method: (§1) To express LsrK or LsrK-N with a hexa-histidine tag at the C-terminus, the LsrK or LsrK-N encoding gene of S. typhimurium was amplified using primers carrying restriction endonuclease sites for BamHI and XhoI, respectively. The amplified product was cloned into the expression vector pET-28a with a C-terminal hexa-histidine tag and transfected into E. coli BL21(DE3) cells. The transformed cells were selected on LB agar plates containing 50 µg/mL kanamycin. The recombinant isolates were grown at 37 °C to the mid-log exponential phase. Protein synthesis was induced by 0.5 mM IPTG. After overnight growth, the cells were pelleted at 13,000× g for 10 min at 4 °C, resuspended in lysis buffer (50 mM NaH2PO4, 300 mM NaCl, and pH 8.0), and sonicated on ice for 10 cycles with a 30-s pulse and 30-s pause. The bacterial lysate was then centrifuged at 4 °C, 13,000× g for 10 min, and the supernatant passed through a 0.22 µm filter.
The LsrK inhibition assay was performed as described previously. The 62 selected compounds were dissolved in DMSO at a concentration of 2 mM. The assay was carried out with final concentrations of 300 nM LsrK, 100 μM ATP, and 300 μM DPD in a reaction buffer containing 25 mM TEA, pH 7.4, 800 μM MgCl2, and 0.1 mg/mL BSA. Specifically, 10 μL DPD, 10 μL LsrK, and 5 μL of the compound were added to a 96-well plate, and a 25 μL ATP or 25 μL reaction buffer was added after 30 min of incubation. The plate was incubated for 10 min at 37 °C, then 50 μL of kit reagent was added and the plate was incubated at 37 °C for 15 min. The luminescence signal was measured by the Enspire 2300 microplate reader (PerkinElmer). To confirm the activity of hits selected by primary screening, dose-response experiments were performed (200–6.25 µM). The inhibition % for each tested compound was determined as described previously. The IC50 values were calculated using the four logistic parameters.

In assay [3] the test system is AI-2 QS in WHQ02 (E. coli BL21 ΔTolC pWHQ01). Kind of assay: Cell-based AI-2-mediated QS interference assay in WHQ02. Conditions: Escherichia coli. From the text:
(§2) All chemicals were purchased from Sigma-Aldrich (St. Louis, MO, USA) if not otherwise stated. DPD was purchased from […] ZZBIO Co., Ltd. (Shanghai, China). The Kinase-Glo Max Luminescent kinase assay kit was purchased from Promega Corp. (Madison, WI, USA). The NTA sensor chip was purchased from GE Healthcare (Chicago, IL, USA). All compounds selected by virtual screening were purchased from Topscience Biotechnology Co., Ltd. (Shanghai, China). The QS reporter strains WHQ01 (S. typhimurium ATCC 202165 ΔTolC pWHQ01) and WHQ02 (E. coli BL21 ΔTolC pWHQ01) were donated by Huiqi Wen (Institute of Microbiology and Epidemiology, Academy of Military Sciences, Beijing, China). The plasmid pWHQ01 was constructed by cloning of lsr promoters and the luxCDABE luminescent gene. BamHI, XhoI, EcoRI, and NotI restriction endonucleases were purchased from New England Biolabs (Ipswich, MA, USA). pET-28a and pGEX-4T-1 were purchased from Novagen (Madison, WI, USA). E. coli BL21 (DE3) was purchased from TransGen Biotech Co., Ltd. (Beijing, China). The Ni-NTA column and GST Gravity column were purchased from Sangon Biotech (Shanghai, China). Sodium dodecyl sulfate-polyacrylamide gel electrophoresis (SDS-PAGE) gels and the Bradford Protein Assay Kit were purchased from Thermo Fisher Scientific (Waltham, MA, USA). Ultrafiltration centrifuge tubes were purchased from Millipore (Bedford, MA, USA). Dialysis bags were purchased from Beijing Solarbio Science and Technology Co., Ltd. (Beijing, China).
(§3) WHQ01 or WHQ02 was cultured overnight and diluted 1:100 in fresh LB supplemented with 100 µg/mL ampicillin and grown at 30 °C until the logarithmic phase (OD600 = 0.4–0.6). The bacterial culture was centrifuged at 4000× g for 5 min and the pellet was resuspended with fresh LB to prepare a suspension of 2 McFarland standard, which was added to a 96-well plate. In the experimental group, 62 compounds with final concentrations ranging from […] were added to obtain a total volume of 100 µL. A negative control comprising 100 µL of LB with DMSO of the same volume and a positive control comprising 100 µL of LB supplemented with 2% glucose and DMSO of the same volume were also added. Then, bacteria were grown at 37 °C for 3 h. The […] of WHQ01 or WHQ02 was directly regulated by the Lsr promoters to reflect the strength of AI-2 QS. Luminescence was measured by the Enspire 2300 microplate reader. To further study the effect of compounds on bacterial growth, a suspension containing 1 × 10^8 CFU/mL of WHQ01 or WHQ02 (0.5 McFarland standard) was diluted 1:100 with LB and added to a 96-well plate. Compounds were added to the 96-well plate at a final concentration of 100 µM and diluted in a gradient. DMSO of the same volume was added as the control group. The plate was grown at 37 °C for 18–24 h. The OD600 values were recorded using the Enspire 2300 microplate reader. The experiment was performed three times.

Assay [4] relates to AI-2 QS in WHQ01 (S. typhimurium ATCC 202165 ΔTolC pWHQ01). Kind of assay: Cell-based AI-2-mediated QS interference assay in WHQ01. Conditions: Salmonella enterica, read-out: WHQ01 (IC50).
From the text: as §2, §3

Assay [5] has as its target T2, LsrK-N protein (HPr binding domain, residues 1-260) (Salmonella typhimurium, UniProt Q8ZKQ6).
T2 construct: hexa-histidine (C); made in house; host or cells: E. coli BL21(DE3), pET-28a
Kind of assay: SPR assay on immobilized LsrK-N. The arrangement: species or system S. typhimurium. The protocol:
as §1
(§4) Serial dilutions of compound 4171-0375 were injected, ranging in concentrations from 100 to 1.56 µM, an intermediate concentration of 12.5 µM was set as a repeat, and 1× PBS-T with 5% v/v DMSO was set as a control group. The association time was set to 120 s, the dissociation time was set to 130 s, and the flow rate was set to 30 µL/min. The resulting data were fit to the affinity binding model using Biacore Evaluation Software (GE Healthcare).
In general terms: Surface plasmon resonance follows binding to a sensor surface in real time, without labels.

The target of assay [6] is T1, LsrK. The assay can be described thus: SPR assay on immobilized LsrK. Format: binding, S. typhimurium. The protocol: as §1, §4
The mark [7] stands for this setting: dose-response 200–6.25 µM, 100 μM ATP, 300 μM DPD, mean ± SD, n = 3, read-out: LsrK (IC50).
[8] abbreviates: dose-response assay, read-out: LsrK inhibition IC50.

T1 sequence (Q8ZKQ6 whole entry): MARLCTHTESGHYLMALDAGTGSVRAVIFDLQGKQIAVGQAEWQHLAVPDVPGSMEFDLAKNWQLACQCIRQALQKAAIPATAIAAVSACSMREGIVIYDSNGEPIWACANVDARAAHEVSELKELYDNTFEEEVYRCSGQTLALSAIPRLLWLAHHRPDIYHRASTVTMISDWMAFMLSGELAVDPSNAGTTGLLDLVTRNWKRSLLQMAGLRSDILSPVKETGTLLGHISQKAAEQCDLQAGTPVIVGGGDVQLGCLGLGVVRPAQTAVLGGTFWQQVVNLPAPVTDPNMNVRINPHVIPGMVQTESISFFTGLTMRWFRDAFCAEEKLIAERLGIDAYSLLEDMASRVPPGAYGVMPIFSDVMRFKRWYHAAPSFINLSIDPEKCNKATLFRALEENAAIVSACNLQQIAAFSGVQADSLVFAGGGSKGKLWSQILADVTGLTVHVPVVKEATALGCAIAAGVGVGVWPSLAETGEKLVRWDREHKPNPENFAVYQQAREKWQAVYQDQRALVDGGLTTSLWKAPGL
T2 sequence (Q8ZKQ6 1-260): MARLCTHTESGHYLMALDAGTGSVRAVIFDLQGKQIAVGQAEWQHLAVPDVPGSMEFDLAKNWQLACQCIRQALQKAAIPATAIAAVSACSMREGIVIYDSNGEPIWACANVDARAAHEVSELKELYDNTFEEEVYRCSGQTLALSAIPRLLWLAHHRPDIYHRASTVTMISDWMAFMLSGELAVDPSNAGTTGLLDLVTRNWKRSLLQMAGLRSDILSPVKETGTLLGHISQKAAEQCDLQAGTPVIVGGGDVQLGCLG

`CN1CCN(C(=O)c2ccc(NCc3ccc(F)cc3)c(S(=O)(=O)Nc3cccc(C(F)(F)F)c3)c2)CC1` [Compound K659-0421]: the “ATP competition (mode of inhibition)” value in assay [1] is “non-ATP competitive inhibitors”. 200 µM produced 75 ± 8% inhibition in assay [2] (mean ± SD, n = 3). Besides, the half-inhibitory concentration (IC50) in assay [2] (setting [7]) was 73.7 ± 5.33 µM; in assay [2] (setting [8]), below 100 µM; in assay [3] (BL21, read-out: WHQ02 (IC50)) it was 17 ± 0.37 µM; in assay [4] it was 7.97 ± 0.38 µM.

With `CCOc1cc(/C=N/NC(=N)N)ccc1OCc1ccc(Cl)cc1` [Compound 4171-0375], in assay [1], the “ATP competition (mode of inhibition)” value is “non-ATP competitive inhibitors”. Also, 200 µM produced 98 ± 7% inhibition in assay [2] (mean ± SD, n = 3). The concentration for half-maximal inhibition (IC50) in assay [2] (setting [7]) was 26.1 ± 2.94 µM; in assay [2] (setting [8]), below 100 µM; in assay [3] (BL21, read-out: AI-2 QS inhibition IC50 against WHQ02) it was 29.1 ± 1.23 µM; in assay [3] (BL21, read-out: WHQ02 (IC50)), 30.1 ± 1.62 µM; in assay [4], 42.9 ± 1.63 µM. In addition, the Kd in assay [5] (His-tagged LsrK-N on NTA chip, Biacore 8K, affinity model) was found to be 25.1 µM; in assay [6] (His-tagged LsrK on NTA chip, Biacore 8K, affinity model), 94.5 µM. The “binding and dissociation behaviour on LsrK-N (SPR)” value in assay [5] (sensorgram, in words) is “quickly bound and dissociated”. In addition, the “binding and dissociation behaviour on LsrK (SPR)” value in assay [6] (sensorgram, in words) is “quickly bound and dissociated”.

In assay [2] (mean ± SD, n = 3), `Cc1c(CC(=O)O)c(=O)oc2c(C)c(OCc3ccc(F)cc3F)ccc12` [Compound D715-0257] gave an inhibition at 200 µM of 57 ± 7%. Further, the half-maximal inhibitory concentration (IC50) in assay [2] (setting [7]) was found to be 153 ± 5.43 µM; in assay [3] (BL21, read-out: WHQ02 (IC50)) it was 22.3 ± 2.15 µM; in assay [4] it was 21.1 ± 1.18 µM.

Compound `CCOc1cc(C2NC(C(=O)O)CS2)ccc1OCc1c(F)cccc1Cl` (stereo not shown) [Compound 8012-5390] displayed an inhibition at 200 µM in assay [2] (mean ± SD, n = 3) of 60 ± 4%. Also, the concentration for half-maximal inhibition (IC50) in assay [2] (setting [7]) worked out at 147 ± 5.58 µM; in assay [3] (BL21, read-out: WHQ02 (IC50)), 17.7 ± 0.98 µM; in assay [4] it was 23.3 ± 1.05 µM.

Take `COc1cc(/C=C2/SC(=S)N(c3cccc(C(F)(F)F)c3)C2=O)ccc1OCC(=O)O` [Compound 3229-1889]: in assay [2] (mean ± SD, n = 3), at 200 µM the inhibition was 63 ± 4%. In addition, the 50% inhibitory concentration (IC50) was determined as 121 ± 5.37 µM in assay [2] (setting [7]); 15 ± 1.24 µM in assay [3] (BL21, read-out: WHQ02 (IC50)); 24.7 ± 1.42 µM in assay [4].

In turn, `NCCc1cn(Cc2ccc(C(F)(F)F)cc2)nn1` [Compound 8020-4294] displayed an inhibition at 200 µM in assay [2] (mean ± SD, n = 3) of 65 ± 9%. The IC50 stood at 148 ± 6.92 µM in assay [2] (setting [7]); 67.2 ± 4.32 µM in assay [3] (BL21, read-out: WHQ02 (IC50)); 24.9 ± 1.1 µM in assay [4].

`Cc1ccc(NC(=O)C[C@H](C)n2ccnc2)cc1Cl` [Compound G268-0878] displayed an inhibition at 200 µM in assay [2] (mean ± SD, n = 3) of 58 ± 5%. Further, the 50% inhibitory concentration (IC50) in assay [2] (setting [7]) is 129 ± 6.14 µM; in assay [3] (BL21, read-out: WHQ02 (IC50)), 42.3 ± 1.42 µM; in assay [4], 30.6 ± 1.26 µM.

By inhibition is commonly meant the share of the control response that was lost under treatment. A lower inhibition goes with little suppression. As a reminder, the IC50 is the midpoint of a concentration-inhibition curve. The Kd is the constant that tells how readily two partners part at equilibrium. Low readings indicate higher affinity, high ones lower affinity.
